Measurements reported in the NIST ThermoML archive (doi:10.1021/je0340912).
Several values for one entry are separate records, joined by “and”; a condition that tells them apart may be missing. Equal values may be shown once. ± gives the expanded uncertainty stated by the source.

Key:
[1] = Liquid; for mass density: 101.33 kPa
[2] = excess molar enthalpy (molar enthalpy of mixing); xn = mol fraction of the nth substance listed; details: 101.32 kPa, Liquid, Flow calorimetry

## C=C(C)CC(C)(C)C [2,4,4-trimethyl-1-pentene]
[1]; 298.15 K
  mass density: 711.3 ± 1 kg/m3
[1]; 374.34 K
  vapor or sublimation pressure: 101.4 ± 0.3 kPa and 101.3 ± 0.3 kPa

## C=C(C)CC(C)(C)C [2,4,4-trimethyl-1-pentene] + CC(C)(C)O
[2]; 300.15 K, x2 = 0.0529
  excess molar enthalpy: 0.125 ± 0.00148 kcal/mol
[2]; 300.15 K, x2 = 0.0811
  excess molar enthalpy: 0.151 ± 0.00174 kcal/mol
[2]; 300.15 K, x2 = 0.1559
  excess molar enthalpy: 0.188 ± 0.00213 kcal/mol
[2]; 300.15 K, x2 = 0.2264
  excess molar enthalpy: 0.208 ± 0.00232 kcal/mol
[2]; 300.15 K, x2 = 0.2928
  excess molar enthalpy: 0.218 ± 0.00239 kcal/mol
[2]; 300.15 K, x2 = 0.3555
  excess molar enthalpy: 0.225 ± 0.00239 kcal/mol
[2]; 300.15 K, x2 = 0.4148
  excess molar enthalpy: 0.227 ± 0.00263 kcal/mol
[2]; 300.15 K, x2 = 0.471
  excess molar enthalpy: 0.228 ± 0.00263 kcal/mol
[2]; 300.15 K, x2 = 0.5241
  excess molar enthalpy: 0.226 ± 0.00263 kcal/mol
[2]; 300.15 K, x2 = 0.5242
  excess molar enthalpy: 0.225 ± 0.00239 kcal/mol
[2]; 300.15 K, x2 = 0.5747
  excess molar enthalpy: 0.222 kcal/mol
[2]; 300.15 K, x2 = 0.6229
  excess molar enthalpy: 0.216 ± 0.00239 kcal/mol
[2]; 300.15 K, x2 = 0.6687
  excess molar enthalpy: 0.207 ± 0.00232 kcal/mol
[2]; 300.15 K, x2 = 0.7124
  excess molar enthalpy: 0.195 ± 0.0022 kcal/mol
[2]; 300.15 K, x2 = 0.7541
  excess molar enthalpy: 0.18 ± 0.00203 kcal/mol
[2]; 300.15 K, x2 = 0.7939
  excess molar enthalpy: 0.161 ± 0.00186 kcal/mol
[2]; 300.15 K, x2 = 0.832
  excess molar enthalpy: 0.141 ± 0.00165 kcal/mol
[2]; 300.15 K, x2 = 0.8685
  excess molar enthalpy: 0.118 ± 0.00141 kcal/mol
[2]; 300.15 K, x2 = 0.9034
  excess molar enthalpy: 0.0915 ± 0.00115 kcal/mol
[2]; 300.15 K, x2 = 0.9369
  excess molar enthalpy: 0.0626 ± 0.00086 kcal/mol
[2]; 300.15 K, x2 = 0.9691
  excess molar enthalpy: 0.0326 ± 0.000574 kcal/mol

## C=C(C)CC(C)(C)C [2,4,4-trimethyl-1-pentene] + CCC(C)O
[2]; 298.15 K, x2 = 0.0544
  excess molar enthalpy: 0.13 ± 0.00153 kcal/mol
[2]; 298.15 K, x2 = 0.0832
  excess molar enthalpy: 0.159 ± 0.00184 kcal/mol
[2]; 298.15 K, x2 = 0.1597
  excess molar enthalpy: 0.202 ± 0.00225 kcal/mol
[2]; 298.15 K, x2 = 0.2314
  excess molar enthalpy: 0.227 ± 0.00263 kcal/mol
[2]; 298.15 K, x2 = 0.2987
  excess molar enthalpy: 0.243 ± 0.00263 kcal/mol
[2]; 298.15 K, x2 = 0.3621
  excess molar enthalpy: 0.251 ± 0.00263 kcal/mol
[2]; 298.15 K, x2 = 0.4217
  excess molar enthalpy: 0.252 ± 0.00287 kcal/mol
[2]; 298.15 K, x2 = 0.4781
  excess molar enthalpy: 0.249 ± 0.00263 kcal/mol
[2]; 298.15 K, x2 = 0.5313
  excess molar enthalpy: 0.241 ± 0.00263 kcal/mol
[2]; 298.15 K, x2 = 0.5818
  excess molar enthalpy: 0.229 ± 0.00263 kcal/mol
[2]; 298.15 K, x2 = 0.6296
  excess molar enthalpy: 0.213 ± 0.00237 kcal/mol
[2]; 298.15 K, x2 = 0.675
  excess molar enthalpy: 0.196 ± 0.0022 kcal/mol
[2]; 298.15 K, x2 = 0.7182
  excess molar enthalpy: 0.177 ± 0.00201 kcal/mol
[2]; 298.15 K, x2 = 0.7593
  excess molar enthalpy: 0.156 ± 0.00179 kcal/mol
[2]; 298.15 K, x2 = 0.7986
  excess molar enthalpy: 0.134 ± 0.00158 kcal/mol
[2]; 298.15 K, x2 = 0.836
  excess molar enthalpy: 0.112 ± 0.00136 kcal/mol
[2]; 298.15 K, x2 = 0.8717
  excess molar enthalpy: 0.0891 ± 0.00112 kcal/mol
[2]; 298.15 K, x2 = 0.9059
  excess molar enthalpy: 0.0665 ± 0.000908 kcal/mol
[2]; 298.15 K, x2 = 0.9386
  excess molar enthalpy: 0.0437 ± 0.000669 kcal/mol
[2]; 298.15 K, x2 = 0.9699
  excess molar enthalpy: 0.0219 ± 0.000454 kcal/mol

## CC(C)(C)O [2-methylpropan-2-ol]
[1]; 303.15 K
  mass density: 775.5 ± 0.6 kg/m3
[1]; 355.13 K
  vapor or sublimation pressure: 100.6 ± 0.2 kPa

## CCC(C)O (configuration not stated) [butan-2-ol]
[1]; 298.15 K
  mass density: 802.4 ± 0.6 kg/m3
[1]; 372.14 K
  vapor or sublimation pressure: 100.5 ± 0.2 kPa
